Test results from patent publication US7312219B2, “Heteroaromatic inhibitors of fructose 1,6-bisphosphatase” (Metabasis Therapeutics, Inc., priority 1998, dated 2007).
Read-outs that look alike come from different tables or passages of the source.

Key:
Human adenosine kinase = target: T1, Human adenosine kinase (Homo sapiens, UniProt P55263); assay: AMP Site/Enzyme Selectivity: Adenosine Kinase; assay type: biochemical; conditions: read-out: Adenosine Kinase (inh.)
T1 construct: made in house; host or cells: E. coli

Porcine heart AMPDA = assay: AMP Site/Enzyme Selectivity: Adenosine Monophosphate Deaminase; assay type: biochemical; conditions: read-out: AMP Deaminase (inh.)
[1] = target: T2, Glycogen Phosphorylase (rabbit muscle) (Oryctolagus cuniculus, UniProt P00489); assay: AMP Site/Enzyme Selectivity: Glycogen Phosphorylase; assay type: biochemical; conditions: activation; read-out: Glycogen Phosphorylase (act.)
T2 construct: Enzyme (rabbit muscle) was purchased from Sigma; purchased Sigma; host or cells: rabbit muscle
T2 sequence (P00489 2-843 limits assumed): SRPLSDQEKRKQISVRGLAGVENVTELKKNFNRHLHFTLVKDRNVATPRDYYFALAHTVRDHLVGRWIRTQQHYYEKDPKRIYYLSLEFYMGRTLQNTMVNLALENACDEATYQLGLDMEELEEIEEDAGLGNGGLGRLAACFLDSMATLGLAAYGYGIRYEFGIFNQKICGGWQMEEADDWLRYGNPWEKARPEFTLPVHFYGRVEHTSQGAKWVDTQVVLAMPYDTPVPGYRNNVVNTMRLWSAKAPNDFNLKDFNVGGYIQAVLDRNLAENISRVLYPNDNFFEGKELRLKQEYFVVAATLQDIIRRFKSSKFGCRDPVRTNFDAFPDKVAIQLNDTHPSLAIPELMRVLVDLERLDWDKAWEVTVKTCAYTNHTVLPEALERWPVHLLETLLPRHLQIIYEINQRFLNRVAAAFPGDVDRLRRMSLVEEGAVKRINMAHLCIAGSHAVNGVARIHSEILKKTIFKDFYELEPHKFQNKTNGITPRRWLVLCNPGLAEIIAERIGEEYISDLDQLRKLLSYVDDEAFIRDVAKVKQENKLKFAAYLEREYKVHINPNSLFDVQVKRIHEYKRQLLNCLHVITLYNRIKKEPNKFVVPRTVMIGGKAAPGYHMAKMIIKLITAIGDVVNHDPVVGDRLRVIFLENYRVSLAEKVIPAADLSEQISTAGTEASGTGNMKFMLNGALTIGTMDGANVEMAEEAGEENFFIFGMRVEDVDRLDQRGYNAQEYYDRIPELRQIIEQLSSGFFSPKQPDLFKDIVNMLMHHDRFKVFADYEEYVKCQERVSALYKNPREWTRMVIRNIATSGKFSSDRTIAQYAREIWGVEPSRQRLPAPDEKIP

[2] = target: T3, Adenylate Kinase (rabbit muscle) (Oryctolagus cuniculus, UniProt P00569); assay: AMP Site/Enzyme Selectivity: Adenylate Kinase; assay type: biochemical; conditions: read-out: Adenylate Kinase (inh.)
T3 construct: Enzyme (rabbit muscle) was purchase from Sigma; purchased Sigma; host or cells: rabbit muscle
T3 sequence (P00569 1-194): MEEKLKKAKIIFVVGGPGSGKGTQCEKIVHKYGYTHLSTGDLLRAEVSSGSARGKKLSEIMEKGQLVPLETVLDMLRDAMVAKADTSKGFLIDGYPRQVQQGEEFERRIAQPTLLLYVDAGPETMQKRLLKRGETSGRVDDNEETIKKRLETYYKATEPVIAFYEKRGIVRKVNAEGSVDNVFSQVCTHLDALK

[3] = test system: Gluconeogenesis in Rat Hepatocytes; assay: Inhibition of Gluconeogenesis in Rat Hepatocytes; assay type: cell-based; conditions: Hepatocyte, 10 mM lactate, 1 mM pyruvate, 1 hour incubation, read-out: IC50 Glucose Production
Method: Hepatocytes were prepared from overnight fasted Sprague-Dawley rats (250–300 g) according to the procedure of Berry and Friend (Berry, M. N., Friend, D. S., 1969, J. Cell. Biol. 43, 506–520) as modified by Groen (Groen, A. K., Sips, H. J., Vervoorn, R. C., Tager, J. M. , 1982, Eur. J. Biochem. 122, 87–93). Hepatocytes (75 mg wet weight/ml) were incubated in 1 ml Krebs-bicarbonate buffer containing 10 mM Lactate, 1 mM pyruvate, 1 mg/ml BSA, and test compound concentrations from 1 to 500 μM. Incubations were carried out in a 95% oxygen, 5% carbon dioxide atmosphere in closed, 50-ml Falcon tubes submerged in a rapidly shaking water bath (37° C.). After 1 hour, an aliquot (0.25 ml) was removed, transferred to an Eppendorf tube and centrifuged. 50 μl of supernatant was then assayed for glucose content using a Sigma Glucose Oxidase kit as per the manufacturer's instructions.

Fasted Rats = assay: Blood Glucose Lowering Following Intravenous Administration to Fasted Rats; assay type: in vivo, rat; conditions: Rattus norvegicus, iv; 18 h fasted Sprague Dawley rats, 10 mg/kg i.v., 1 hour, relative to saline-treated controls
Method: Inhibitors were disolved in water and the solution adjusted to neutrality with NaOH. Blood samples were obtained from the tail vein of conscious animals just prior to injection and after 1 hour. Blood glucose was measured using a HemoCue Inc. glucose analyzer according to the instructions of the manufacturer.

[4] = Estimation of the Oral Bioavailability of Phosphonic Acids and their Prodrugs; assay type: in vivo, rat; conditions: Sprague-Dawley, rat, urine; fasted rats, oral 10–50 mg/kg, 24 h urinary recovery of phosphonic acid, oral vs intravenous
Method: Phosphonic acids were dissolved in water, and the solution adjusted to neutrality with sodium hydroxide. Prodrugs were dissolved in 10% ethanol/90% polyethlene glycol (mw 400). Compound was administered by oral gavage to 18-hour fasted Sprague-Dawley rats (220–250 g) at doses ranging from 10–50 mg/kg. The rats were subsequently placed in metabolic cages and urine was collected for 24 hours. The quantity of phosphonic acid excreted into urine was determined by HPLC analysis as described in Example G. In a separate study, urinary recovery was determined following intravenous (tail vein) administration of compound (in the case of the prodrugs, the appropriate parent phosphonic acid was administered i.v.).

[5] = Analysis of Drug Levels and Liver Accumulation in Rats; assay type: in vivo, rat; conditions: fasted rats, 10 mgs/kg i.v., one hour post injection, liver
Method: The compound was dissolved in water and the solution adjusted to neutrality with NaOH. One hour post injection rats were anesthetized with halothane and a liver biopsy (approx. 1 g) was taken as well as a blood sample (2 ml) from the posterior vena cava. A heparin flushed syringe and needle were used for blood collection. The liver sample was immediately homogenized in ice-cold 10% perchloric acid (3 ml), centrifuged, and the supernatant neutralized with ⅓rd volume of 3 M KOH/3 M KHCO3. […] Plasma was prepared from the blood sample by centrifugation and extracted by addition of methanol to 60% (v/v). The methanolic extract was clarified by centrifugation and filtration and then analyzed by HPLC as described above.

Fasted Rat = assay: Glucose Lowering Following Oral Administration to the Fasted Rat; assay type: in vivo; conditions: oral gavage, 18-hour fasted rats, dose 90 mg/kg, time point 3 h, relative to saline controls
Method: Compounds were administered by oral gavage to 18-hour fasted, Sprague Dawley rats (250–300 g, n =3/4/group). Phosphonic acids were prepared in deionized water, and the solution adjusted to neutrality with solidum hydroxide. Prodrugs were dissolved in polyethylene glycol (mw 400). […] The table below indicates the maximum glucose lowering achieved relative to control animals dosed with saline.

human liver FBPase = target: T4, human liver FBPase (Homo sapiens, UniProt P09467); assay: Inhibition of Human Liver FBPase; assay type: biochemical; conditions: read-out: IC50 (hlFBPase)
T4 construct: made in house; host or cells: E. coli BL21
T4 sequence (P09467 2-338 limits assumed): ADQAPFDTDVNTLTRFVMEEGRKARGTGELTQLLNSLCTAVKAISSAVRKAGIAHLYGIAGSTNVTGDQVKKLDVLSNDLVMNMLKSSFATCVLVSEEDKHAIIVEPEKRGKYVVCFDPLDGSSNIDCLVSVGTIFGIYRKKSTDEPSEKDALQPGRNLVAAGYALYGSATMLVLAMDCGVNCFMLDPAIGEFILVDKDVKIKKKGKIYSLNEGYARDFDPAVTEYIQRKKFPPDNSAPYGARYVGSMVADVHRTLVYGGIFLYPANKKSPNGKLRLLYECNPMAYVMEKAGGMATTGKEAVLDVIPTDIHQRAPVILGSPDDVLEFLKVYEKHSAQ

rat liver FBPase = target: T5, rat liver FBPase (Rattus norvegicus, UniProt P19112); assay: Inhibition of Rat Liver FBPase
T5 sequence (P19112 2-363 limits assumed): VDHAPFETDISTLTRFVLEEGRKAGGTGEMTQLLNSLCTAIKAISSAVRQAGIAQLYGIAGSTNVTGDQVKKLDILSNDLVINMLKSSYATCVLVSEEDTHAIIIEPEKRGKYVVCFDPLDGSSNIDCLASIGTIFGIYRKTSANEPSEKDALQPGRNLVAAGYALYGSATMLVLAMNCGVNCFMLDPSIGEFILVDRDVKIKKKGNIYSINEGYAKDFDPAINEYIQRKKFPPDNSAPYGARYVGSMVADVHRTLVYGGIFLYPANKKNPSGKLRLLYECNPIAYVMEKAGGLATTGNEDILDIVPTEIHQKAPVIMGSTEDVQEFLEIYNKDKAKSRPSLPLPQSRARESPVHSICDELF

T1 sequence (P55263 1-345 isoform P55263-2): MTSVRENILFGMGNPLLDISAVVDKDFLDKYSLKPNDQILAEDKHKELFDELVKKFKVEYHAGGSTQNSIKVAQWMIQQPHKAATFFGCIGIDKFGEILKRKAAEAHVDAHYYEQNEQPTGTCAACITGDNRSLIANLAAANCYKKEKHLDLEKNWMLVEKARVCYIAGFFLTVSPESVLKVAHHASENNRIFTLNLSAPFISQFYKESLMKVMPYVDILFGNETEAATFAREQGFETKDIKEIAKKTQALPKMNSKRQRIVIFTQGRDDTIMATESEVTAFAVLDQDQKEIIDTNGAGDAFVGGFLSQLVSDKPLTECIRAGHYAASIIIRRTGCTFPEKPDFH

IC50 (Human adenosine kinase)	IC50 (Porcine heart AMPDA)	EC50 [1]	IC50 [2]	bioavailability [4]	Compound	inhibition in vivo at 10 mg/kg (Fasted Rats)	IC50 (human liver FBPase)	further results
					CCc1cc(CC)c(-c2ccc(P(=O)(O)O)o2)nc1N [Compound 15.4, 2-amino-3,5-diethyl-6-[2-(5-phosphono)furanyl]pyridine]			melting point: 217 to 218 °C
> 10 µM	> 10 µM	> 100 µM	> 500 µM	4%	CC(C)Cc1sc(N)nc1-c1ccc(P(=O)(O)O)o1 [Compound 3.1, 2-amino-5-isobutyl-4-[2-(5-phosphono)furanyl]thiazole]	65%		IC50 [3]: 2.5 µM
> 10 µM	> 10 µM	> 100 µM	> 500 µM	21%	CC(C)Cc1oc(N)nc1-c1ccc(P(=O)(O)O)o1 [Compound 10.1, 2-amino-5-isobutyl-4-[2-(5-phosphono)furanyl]oxazole]	51%		Liver Conc. [5]: 35.6 ± 4.2 nmol/g; % Glucose Lowering (maximum) (Fasted Rat): 55%
					CC(C)Cc1[se]c(N)nc1-c1ccc(P(=O)(O)O)o1 [Compound 3.70, 2-Amino-5-isobutyl-4-[2-(5-phosphono)furanyl]selenazole]		0.04 µM	IC50 (rat liver FBPase): 0.15 µM
					Nc1ncnc2c1ncn2[C@@H]1O[C@H](COP(=O)(O)O)[C@@H](O)[C@H]1O [AMP, reference compound]		1 µM	IC50 (rat liver FBPase; read-out: IC50 (rlFBPase)): 20 µM
